Results: paper PMC10931833, “Simultaneous Purification of Human Interferon Alpha-2b and Serum Albumin Using Bioprivileged Fluorinated Ionic Liquid-Based Aqueous Biphasic Systems” (International Journal of Molecular Sciences, 2024)

Experiments:
[1] = target: T1, BSA (Bos taurus, UniProt P02769); experiment: DSC thermal unfolding of BSA in water and aqueous solutions of ABS phase-forming components; assay type: physicochemical, bovine; details: for Tm / ΔG / ΔHcal / ΔHcal/ΔHvH / ΔHvH / ΔS: 1.0 mg/mL BSA
T1 construct: purchased Millipore Sigma-Aldrich
T1 sequence (P02769 25-607): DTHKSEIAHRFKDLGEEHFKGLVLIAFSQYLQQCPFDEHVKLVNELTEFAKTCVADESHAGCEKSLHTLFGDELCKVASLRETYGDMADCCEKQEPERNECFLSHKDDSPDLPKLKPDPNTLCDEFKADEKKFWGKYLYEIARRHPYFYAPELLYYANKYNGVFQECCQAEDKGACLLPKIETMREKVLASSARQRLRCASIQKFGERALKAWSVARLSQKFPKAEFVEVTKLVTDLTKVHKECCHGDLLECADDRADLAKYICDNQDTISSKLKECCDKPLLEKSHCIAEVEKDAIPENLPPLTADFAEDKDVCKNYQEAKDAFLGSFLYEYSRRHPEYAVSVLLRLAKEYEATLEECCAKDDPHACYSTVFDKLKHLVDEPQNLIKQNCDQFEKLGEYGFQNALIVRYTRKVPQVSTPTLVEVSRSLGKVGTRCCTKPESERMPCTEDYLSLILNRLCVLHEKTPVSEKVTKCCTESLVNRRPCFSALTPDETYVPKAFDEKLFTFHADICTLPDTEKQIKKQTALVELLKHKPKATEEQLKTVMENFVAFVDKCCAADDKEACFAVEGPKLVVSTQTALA
How it was run: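 T m and unfolding enthalpy (ΔH) of BSA were taken from heat capacity versus temperature scans by nano DSC. BSA was scanned in water and with increasing concentrations of each ABS phase-forming component. T m is the midpoint of the thermal unfolding transition.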

[2] = target: T1, BSA; experiment: Far-UV CD secondary structure of BSA (CONTIN-LL deconvolution); assay type: physicochemical, bovine; parameters: Regular Alpha Helix / Distorted Alpha Helix / Regular Beta Sheet / Distorted Beta Sheet / Turns / Unordered: unit not given here; details: 1.0 mg/mL BSA, 25 °C
How it was run: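 Far-UV CD spectra (190–260 nm) of BSA at 1 mg/mL with solvent at 0.1 to 200 mM, 10 mm cuvette, room temperature, 50 nm/min, 4 accumulations, duplicates combined. Converted to MRE; secondary structure deconvoluted by CONTIN-LL with SMP180 reference set.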

C[N+](C)(C)CCO.O=S(=O)([O-])C(F)(F)C(F)(F)C(F)(F)C(F)(F)F [[N1112(OH)][C4F9SO3], (2-hydroxyethyl)trimethylammonium perfluorobutane sulfonate]
Tm ([1]; 0.1 mM component): 79.77 °C
ΔG ([1]; 0.1 mM component): 22.44 kcal/mol
ΔHcal ([1]; 0.1 mM component): 144.1 kcal/mol
ΔHcal/ΔHvH ([1]; 0.1 mM component): 1.064
ΔHvH ([1]; 0.1 mM component): 135.5 kcal/mol
ΔS ([1]; 0.1 mM component): 1.708 KJ/(mol.K)
Tm ([1]; 1 mM component): 80.57 °C
ΔG ([1]; 1 mM component): 22.08 kcal/mol
ΔHcal ([1]; 1 mM component): 138.2 kcal/mol
ΔHcal/ΔHvH ([1]; 1 mM component): 0.921
ΔHvH ([1]; 1 mM component): 150 kcal/mol
ΔS ([1]; 1 mM component): 1.629 KJ/(mol.K)
Tm ([1]; 5 mM component): 79.79 °C
ΔG ([1]; 5 mM component): 26.41 kcal/mol
ΔHcal ([1]; 5 mM component): 169.4 kcal/mol
ΔHcal/ΔHvH ([1]; 5 mM component): 0.884
ΔHvH ([1]; 5 mM component): 191.5 kcal/mol
ΔS ([1]; 5 mM component): 2.007 KJ/(mol.K)
Tm ([1]; 10 mM component): 82.78 °C
ΔG ([1]; 10 mM component): 32.27 kcal/mol
ΔHcal ([1]; 10 mM component): 197.9 kcal/mol
ΔHcal/ΔHvH ([1]; 10 mM component): 1.156
ΔHvH ([1]; 10 mM component): 171.3 kcal/mol
ΔS ([1]; 10 mM component): 2.325 KJ/(mol.K)
Tm ([1]; 25 mM component): 84.18 °C
ΔG ([1]; 25 mM component): 30.31 kcal/mol
ΔHcal ([1]; 25 mM component): 182 kcal/mol
ΔHcal/ΔHvH ([1]; 25 mM component): 1.019
ΔHvH ([1]; 25 mM component): 178.6 kcal/mol
ΔS ([1]; 25 mM component): 2.128 KJ/(mol.K)
Tm ([1]; 55 mM component): 86.11 °C
ΔG ([1]; 55 mM component): 31.57 kcal/mol
ΔHcal ([1]; 55 mM component): 184.7 kcal/mol
ΔHcal/ΔHvH ([1]; 55 mM component): 0.929
ΔHvH ([1]; 55 mM component): 198.7 kcal/mol
ΔS ([1]; 55 mM component): 2.149 KJ/(mol.K)
Tm ([1]; 200 mM component): 87.23 °C
ΔG ([1]; 200 mM component): 28.51 kcal/mol
ΔHcal ([1]; 200 mM component): 167.9 kcal/mol
ΔHcal/ΔHvH ([1]; 200 mM component): 1.024
ΔHvH ([1]; 200 mM component): 163.9 kcal/mol
ΔS ([1]; 200 mM component): 1.956 KJ/(mol.K)
increase of BSA Tm (DSC) ([1]; FIL at the highest concentration (120 mM) vs water): ~12 °C
Distorted Alpha Helix ([2]; 0.1 mM component): 0.214
Distorted Beta Sheet ([2]; 0.1 mM component): 0.025
Regular Alpha Helix ([2]; 0.1 mM component): 0.418
Regular Beta Sheet ([2]; 0.1 mM component): 0.000
Turns ([2]; 0.1 mM component): 0.138
Unordered ([2]; 0.1 mM component): 0.205
Distorted Alpha Helix ([2]; 1 mM component): 0.225
Distorted Beta Sheet ([2]; 1 mM component): 0.024
Regular Alpha Helix ([2]; 1 mM component): 0.428
Regular Beta Sheet ([2]; 1 mM component): 0.000
Turns ([2]; 1 mM component): 0.138
Unordered ([2]; 1 mM component): 0.185
Distorted Alpha Helix ([2]; 5 mM component): 0.222
Distorted Beta Sheet ([2]; 5 mM component): 0.025
Regular Alpha Helix ([2]; 5 mM component): 0.423
Regular Beta Sheet ([2]; 5 mM component): 0.000
Turns ([2]; 5 mM component): 0.139
Unordered ([2]; 5 mM component): 0.192
Distorted Alpha Helix ([2]; 25 mM component): 0.215
Distorted Beta Sheet ([2]; 25 mM component): 0.025
Regular Alpha Helix ([2]; 25 mM component): 0.406
Regular Beta Sheet ([2]; 25 mM component): 0.000
Turns ([2]; 25 mM component): 0.140
Unordered ([2]; 25 mM component): 0.214
Distorted Alpha Helix ([2]; 55 mM component): 0.208
Distorted Beta Sheet ([2]; 55 mM component): 0.027
Regular Alpha Helix ([2]; 55 mM component): 0.392
Regular Beta Sheet ([2]; 55 mM component): 0.000
Turns ([2]; 55 mM component): 0.144
Unordered ([2]; 55 mM component): 0.228
Distorted Alpha Helix ([2]; 90 mM component): 0.199
Distorted Beta Sheet ([2]; 90 mM component): 0.036
Regular Alpha Helix ([2]; 90 mM component): 0.376
Regular Beta Sheet ([2]; 90 mM component): 0.022
Turns ([2]; 90 mM component): 0.152
Unordered ([2]; 90 mM component): 0.215
Distorted Alpha Helix ([2]; 120 mM component): 0.205
Distorted Beta Sheet ([2]; 120 mM component): 0.032
Regular Alpha Helix ([2]; 120 mM component): 0.400
Regular Beta Sheet ([2]; 120 mM component): 0.012
Turns ([2]; 120 mM component): 0.147
Unordered ([2]; 120 mM component): 0.203
Distorted Alpha Helix ([2]; 200 mM component): 0.207
Distorted Beta Sheet ([2]; 200 mM component): 0.032
Regular Alpha Helix ([2]; 200 mM component): 0.406
Regular Beta Sheet ([2]; 200 mM component): 0.017
Turns ([2]; 200 mM component): 0.147
Unordered ([2]; 200 mM component): 0.191
